Experimental data from PMC6133161, “Thiazoles with cyclopropyl fragment as antifungal, anticonvulsant, and anti-Toxoplasma gondii agents: synthesis, toxicity evaluation, and molecular docking study” (Medicinal Chemistry Research, 2018).
In brackets after ≈: the same amount, converted by molar mass.

Key:
Test in all cases: Broth microdilution MIC/MFC, clinical isolate
Type in all cases: cell-based
C. dubliniensis = conditions: Candida dubliniensis, C. dubliniensis clinical strain; for MFC: read-out: MFC; for MIC: read-out: MIC
From the text: (§1) In the study of antifungal activity of the compounds 3a–3j, 15 clinical strains of different species of yeasts from Candida species, namely C. albicans, C. dubliniensis C. famata, C. inconspicua, C. krusei, C. tropicalis, C. glabrata, C. lambica, C. kefyr, C. lusitaniae, C. parapsilosis, C. guilliermondii, C. lusitaniae, C. pulcherrima and C. sake were also used. These fungi were isolated by the author (from Department of Pharmaceutical Microbiology of Medical University in Lublin, Poland) from different clinical materials, e.g., from upper respiratory tract of hospitalized patients including cancer patients (i.e., with non-small cell lung cancer or hematological malignancies). Some patients were after pre-operative or post-operative chemotherapy (treated with etoposide or cis-platin given in doses according to the standard procedures), patients with chronic hepatitis C (undergoing peginterferon and ribavirin therapy or without antiviral therapy), patients with diabetes, elderly people, aged of 65 years old or older, staying in close population, such as a care centre and people staying outside the home care. The Ethical Committee of the Medical University of Lublin approved the study protocol (No. KE-0254/75/2011). The isolates were identified by standard diagnostic methods—biochemical microtest, e.g., API 20C AUX, ID 32C, API Candida (bioMérieux) on the basis of assimilation of various substrates. All the used microbial cultures were first subcultured on nutrient agar or Sabouraud agar for bacteria and fungi, respectively. The RPMI 1640 with MOPS (for fungi) were inoculated with the suspensions of fungal species. Microbial suspensions were prepared in sterile saline (0.85% NaCl) with an optical density of 0.5 McFarland standard scale (Wiegand et al. [2008]). Samples containing examined compounds were dissolved in dimethyl sulfoxide (DMSO). Furthermore, fungal suspensions were put onto Petri dishes with solid media containing 2 mg/ml of the tested compounds followed incubation under appropriate conditions. The inhibition of microbial growth was judged by comparison with a control culture prepared without any sample tested. Nystatin (Sigma) was used as a reference antifungal compound. Subsequently MIC minimal inhibitory concentration (MIC) of the compounds was examined by the microdilution broth method, using their two-fold dilutions in RPMI 1640 broth with MOPS prepared in 96-well polystyrene plates. Final concentrations of the compounds ranged from 1000 to 0.0038 µg/ml. Microbial suspensions were prepared in sterile saline with an optical density of 0.5 McFarland standard. Next fungal suspension was added per each well containing broth and various concentrations of the examined compounds. After incubation, the MIC was assessed spectrophotometric as the lowest concentration of the samples showing complete fungal growth inhibition. Appropriate DMSO, growth and sterile controls were carried out. The medium with no tested substances was used as a control (Wiegand et al. [2008]). The minimal fungicidal concentration (MFC) are defined as the lowest concentration of the compounds that is required to kill a particular fungal species. MFC was determined by removing the culture using for MIC determinations from each well and spotting onto appropriate agar medium. The plates were incubated. The lowest compounds concentration with no visible growth observed was assessed as a fungicidal concentration. All the experiments were repeated three times and representative data are presented.
(§2) The MFC/MIC ratios were calculated in order to determine fungicidal (MFC/MIC ≤ 4) or fungistatic (MFC/MIC > 4) effect of the tested compounds (O’Donnell et al. [2010]).

C. lusitaniae = conditions: Clavispora lusitaniae, C. lusitaniae clinical strain; for MFC: read-out: MFC; for MIC: read-out: MIC
From the text: as §1, §2

C. parapsilosis = conditions: Lodderomyces parapsilosis, C. parapsilosis clinical strain; for MFC: read-out: MFC; for MIC: read-out: MIC
From the text: as §1, §2

C. sake = conditions: Fermentozyma sake, C. sake clinical strain; for MFC: read-out: MFC; for MIC: read-out: MIC
From the text: as §1, §2

C. tropicalis = conditions: Candida tropicalis, C. tropicalis clinical strain; for MFC: read-out: MFC; for MIC: read-out: MIC
From the text: as §1, §2

C. inconspicua = conditions: Pichia inconspicua, C. inconspicua clinical strain; for MFC: read-out: MFC; for MIC: read-out: MIC
From the text: as §1, §2

C. krusei = conditions: Pichia kudriavzevii, C. krusei clinical strain; for MFC: read-out: MFC; for MIC: read-out: MIC
From the text: as §1, §2

C. famata = conditions: Debaryomyces hansenii, C. famata clinical strain; for MFC: read-out: MFC; for MIC: read-out: MIC
From the text: as §1, §2

C. albicans = conditions: Candida albicans, C. albicans clinical strain; for MFC: read-out: MFC; for MIC: read-out: MIC
From the text: as §1, §2

C. guilliermondii = conditions: Meyerozyma guilliermondii, C. guilliermondii clinical strain; for MFC: read-out: MFC; for MIC: read-out: MIC
From the text: as §1, §2

C. glabrata = conditions: Nakaseomyces glabratus, C. glabrata clinical strain; for MFC: read-out: MFC; for MIC: read-out: MIC
From the text: as §1, §2

C. kefyr = conditions: Kluyveromyces marxianus, C. kefyr clinical strain; for MFC: read-out: MFC; for MIC: read-out: MIC
From the text: as §1, §2

C. pulcherrima = C. pulcherrima clinical strain
From the text: as §1, §2

SMILES	MFC (C. dubliniensis)	MIC (C. dubliniensis)	MFC (C. lusitaniae)	MIC (C. lusitaniae)	MFC (C. parapsilosis)	MIC (C. parapsilosis)	MFC (C. sake)	MIC (C. sake)	MFC (C. tropicalis)	MIC (C. tropicalis)	MFC (C. inconspicua)	MIC (C. inconspicua)	MFC (C. krusei)	MIC (C. krusei)	MFC (C. famata)	MIC (C. famata)	MFC (C. albicans)	MIC (C. albicans)	MFC (C. guilliermondii)	MIC (C. guilliermondii)	other results
Fc1ccc(-c2csc(N/N=C/C3CC3)n2)cc1 [Compound 3a, (E)-2-(2-(Cyclopropylmethylene)hydrazinyl)-4-(4-fluorophenyl)thiazole]	3.91 µg/mL (≈ 15 µM)	1.95 µg/mL (≈ 7.46 µM)	3.91 µg/mL (≈ 15 µM)	0.98 µg/mL (≈ 3.75 µM)	7.81 µg/mL (≈ 29.9 µM)	3.91 µg/mL (≈ 15 µM)	15.6 µg/mL (≈ 59.8 µM)	3.91 µg/mL (≈ 15 µM)	1.95 µg/mL (≈ 7.46 µM)	0.98 µg/mL (≈ 3.75 µM)	3.91 µg/mL (≈ 15 µM)	1.95 µg/mL (≈ 7.46 µM)	1.95 µg/mL (≈ 7.46 µM)	0.98 µg/mL (≈ 3.75 µM)	62.5 µg/mL (≈ 239 µM)	7.81 µg/mL (≈ 29.9 µM)	3.91 µg/mL (≈ 15 µM)	0.98 µg/mL (≈ 3.75 µM)	31.2 µg/mL (≈ 120 µM)	1.95 µg/mL (≈ 7.46 µM)	–
[N-]=[N+]=Nc1ccc(-c2csc(N/N=C/C3CC3)n2)cc1 [Compound 3i, (E)-4-(4-Azidophenyl)-2-(2-(cyclopropylmethylene)hydrazinyl)thiazole]	0.12 µg/mL (≈ 0.422 µM)	0.015 µg/mL (≈ 0.0528 µM)	1.95 µg/mL (≈ 6.86 µM)	0.48 µg/mL (≈ 1.69 µM)	0.98 µg/mL (≈ 3.45 µM)	0.24 µg/mL (≈ 0.844 µM)	7.81 µg/mL (≈ 27.5 µM)	0.48 µg/mL (≈ 1.69 µM)	1.95 µg/mL (≈ 6.86 µM)	0.24 µg/mL (≈ 0.844 µM)	0.98 µg/mL (≈ 3.45 µM)	0.48 µg/mL (≈ 1.69 µM)	7.81 µg/mL (≈ 27.5 µM)	0.98 µg/mL (≈ 3.45 µM)	7.81 µg/mL (≈ 27.5 µM)	1.95 µg/mL (≈ 6.86 µM)	15.6 µg/mL (≈ 54.9 µM)	0.48 µg/mL (≈ 1.69 µM)	15.6 µg/mL (≈ 54.9 µM)	0.98 µg/mL (≈ 3.45 µM)	MFC (C. glabrata): > 1000 µg/mL; MIC (C. glabrata): 31.2 µg/mL (≈ 110 µM); MFC (C. kefyr): > 1000 µg/mL; MIC (C. kefyr): 7.81 µg/mL (≈ 27.5 µM); MFC (C. pulcherrima; read-out: MFC): > 1000 µg/mL; MIC (C. pulcherrima; read-out: MIC): 62.5 µg/mL (≈ 220 µM)
Brc1ccc(-c2csc(N/N=C/C3CC3)n2)cc1 [Compound 3b, (E)-4-(4-Bromophenyl)-2-(2-(cyclopropylmethylene)hydrazinyl)thiazole]	0.06 µg/mL (≈ 0.186 µM)	0.06 µg/mL (≈ 0.186 µM)	1.95 µg/mL (≈ 6.05 µM)	0.98 µg/mL (≈ 3.04 µM)	0.12 µg/mL (≈ 0.372 µM)	0.12 µg/mL (≈ 0.372 µM)	0.24 µg/mL (≈ 0.745 µM)	0.06 µg/mL (≈ 0.186 µM)	0.12 µg/mL (≈ 0.372 µM)	0.06 µg/mL (≈ 0.186 µM)	3.91 µg/mL (≈ 12.1 µM)	0.24 µg/mL (≈ 0.745 µM)	0.48 µg/mL (≈ 1.49 µM)	0.24 µg/mL (≈ 0.745 µM)	0.98 µg/mL (≈ 3.04 µM)	0.12 µg/mL (≈ 0.372 µM)	1.95 µg/mL (≈ 6.05 µM)	0.12 µg/mL (≈ 0.372 µM)	0.48 µg/mL (≈ 1.49 µM)	0.12 µg/mL (≈ 0.372 µM)	MFC (C. glabrata): > 1000 µg/mL; MIC (C. glabrata): 62.5 µg/mL (≈ 194 µM); MFC (C. kefyr): > 1000 µg/mL; MIC (C. kefyr): 15.6 µg/mL (≈ 48.5 µM)
